Assay [1] has as its system hiPSC-VSMCs. The assay is described as follows: Intracellular calcium flux (Fluo4 fluorescence) in hiPSC-VSMCs. The format is cell-based, human. The conditions noted are these: FIG. 6A. The text has this:
(§1) A significant difference also between cells treated with carbachol and potassium chloride was observed (FIG. 6B).
Background: Calcium flux is commonly read through the fluorescence of an indicator in the cells.

For assay [2], the system named is hiPSC-VSMCs. The assay is described as follows: Contractility of hiPSC-VSMCs in response to vasoactive agents. The format is cell-based, human. The conditions noted are these: hiPSC-VSMCs treated with agent; FIG. 6B.
From the text: as §1

The values that follow come from patent US20230147855A1, “METHODS OF GENERATING PLURIPOTENT STEM CELL-DERIVED VASCULAR SMOOTH MUSCLE CELLS, USES, AND COMPOSITION RELATED THERETO” (EMORY UNIVERSITY, priority 2020, published 2023).

For `C[N+](C)(C)CCOC(N)=O` [carbachol], the “Fluo4 fluorescence (intracellular calcium flux)” value in the assay with hiPSC-VSMCs [1] was “dramatic increase”. In addition, in the assay with hiPSC-VSMCs [2], the contractility entry is on record as “significantly increased contractility”.

As for `[Cl-].[K+]` [KCl, potassium chloride], the contractility entry in the assay with hiPSC-VSMCs [2] was “significantly increased contractility”.
